Measurements as given in patent US20230028441A1, “NOVEL HETEROARYL-TRIAZOLE COMPOUNDS AS PESTICIDES” (Bayer Aktiengesellschaft, priority 2019, published 2023).
Read-outs that look alike come from different tables or passages of the source.

Experiments:
Format in all cases: in vivo
[1] = system: fall armyworm larvae (Spodoptera frugiperda); experiment: Spodoptera frugiperda spray test (maize leaf sections); details: 168 h
Method in brief: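 Percent kill of Spodoptera frugiperda larvae was recorded 7 days after infesting dried, treated maize leaf sections. Spray solutions were made from an acetone/DMF compound preparation diluted with 1000 ppm emulsifier-containing water.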

[2] = system: cattle tick larvae (Rhipicephalus microplus), strain Parkhurst, resistant against synthetic pyrethroids; experiment: Rhipicephalus (Boophilus) microplus in-vitro contact test, larval cattle tick; details: read-out: efficacy (larvae dead or moribund)
Method in brief: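 Efficacy, 100% meaning all larvae dead or moribund, was judged at 48 h from loss of negative geotactic climbing. Larvae of the Parkhurst strain, 20–50 per tube, were exposed at 27° C and 85% humidity to acetone-coated tube surfaces; 900 ppm corresponded to 5 μg/cm^2.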

[3] = system: caterpillars of the fall army worm (Spodoptera frugiperda); experiment: Spodoptera frugiperda spray test (cotton leaves); details: 168 h
Procedure: Solvent: 14 parts by weight of dimethylformamide
Emulsifier: alkylaryl polyglycol ether
To produce a suitable preparation of active compound, 1 part by weight of active compound is mixed with the stated amount of solvent and is diluted with water, containing an emulsifier concentration of 1000 ppm, to the desired concentration. Further test concentrations are prepared by dilution with emulsifier containing water. Ammonium salt and/or penetration enhancer in a dosage of 1000 ppm are added to the desired concentration if necessary.
Cotton leaves (Gossypium hirsutum) are treated by being sprayed with the preparation of the active compound of the desired concentration and are infested with caterpillars of the fall army worm (Spodoptera frugiperda).
After 7 days mortality in % is determined. 100% means all the caterpillars have been killed and 0% means none of the caterpillars have been killed.

[4] = system: larvae of the banded cucumber beetle (Diabrotica balteata); experiment: Diabrotica balteata spray test; details: 168 h, read-out: efficacy (seedlings grown up)
Method in brief: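 Efficacy (%) read at day 7: 100% means seedlings grew like untreated, uninfested controls; 0% means no seedlings grew. Wheat seeds germinated 1 day on agar, sprayed with emulsified compound solution (1000 ppm emulsifier in water), then each well infested with 10-20 larvae.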

[5] = system: adult brown dog ticks (Rhipicephalus sanguineus); experiment: Rhipicephalus sanguineus in-vitro contact test with adult brown dog ticks; details: after 48 hours, read-out: efficacy (ticks dead or moribund); for pest or weed control at 1 µg/cm2, 100 g/ha: 1 μg/cm^2 (=100 g/ha); for pest or weed control at 5 µg/cm2, 500 g/ha: 5 μg/cm^2 (=500 g/ha)
Method in brief: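 Efficacy is the percentage of adult ticks dead or moribund, meaning immotile or uncoordinated and unable to escape 45-50° C. heat within 5 min. Read 48 h after 5-10 ticks were enclosed at room temperature in acetone-coated glass tubes. Dose 5 μg/cm^2, from a 900 ppm coating solution.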

[6] = system: larvae of the southern green stink bug (Nezara viridula); experiment: Nezara viridula spray test; details: in Hordeum vulgare, 96 h
Method in brief: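 Percent mortality of southern green stink bug larvae read 4 days after spraying infested Hordeum vulgare. Test solutions: compound in acetone plus dimethylformamide, diluted with emulsifier-containing water (1000 ppm alkylarylpolyglycol ether).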

[7] = system: brown planthopper (Nilaparvata lugens); experiment: Nilaparvata lugens spray test; details: in Oryza sativa, 96 h
Method in brief: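 Rice plants (Oryza sativa) sprayed with compound in acetone/DMF diluted in water containing 1000 ppm alkylarylpolyglycol ether emulsifier, then infested with planthoppers. Mortality % scored after 4 days (100% = all killed, 0% = none killed).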

[8] = system: adult unfed cat fleas (Ctenocephalides felis); experiment: Ctenocephalides felis oral test; details: 48 h
Method in brief: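 Percent flea mortality recorded at 2 days. Compound was dissolved in dimethyl sulfoxide and diluted into cattle blood, which ~20 unfed adult cat fleas ingested through parafilm from a 37°C-heated chamber, their own chamber kept at room temperature.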

[9] = system: green peach aphid (Myzus persicae); experiment: Myzus persicae oral test; details: 120 h
Method in brief: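 Readout: % mortality at day 5, where 100% = all aphids dead and 0% = none dead. Feeding via parafilm membrane over compound in IPL41 medium (33%+15% sugar); mixed-age population. Stock in acetone (1:100 w/w), water-diluted.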

[10] = system: adult engorged female ticks (Rhipicephalus microplus); experiment: Rhipicephalus (Boophilus) microplus injection test; details: 168 h, read-out: efficacy (infertile eggs)
Method in brief: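 Efficacy is the share of infertile eggs: 100% means none are fertile, 0% means all are fertile. Egg deposition was checked 7 days after injecting 1 μL of DMSO-diluted compound into the abdomen of five engorged female R. microplus, with doubtful eggs kept about 42 days to hatching. The stock was 10 mg in 0.5 mL DMSO.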

[11] = system: adult cat fleas (Ctenocephalides felis); experiment: Ctenocephalides felis in-vitro contact test, adult cat flea; details: 5 μg/cm^2 (=500 g/ha), after 48 hours, read-out: efficacy (fleas dead or moribund)
Method in brief: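 Efficacy (%) counts fleas that are dead or moribund, meaning unable to escape heat (45-50 °C, ≤5 min) by climbing. Scoring was done 48 h after 5-10 adults were placed at room temperature in glass tubes. The tubes carried a dried acetone film of compound, 5 μg/cm^2 at 900 ppm.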

[12] = 5 μg/cm^2 (=500 g/ha), after 48 hours
[13] = 100 g/ha (=32 μg/well), after 7 days, wheat seeds
[14] = 500 g/ha (=160 μg/well), after 7 days, wheat seeds
[15] = 100 ppm in cattle blood, after 2 days
[16] = 4 μg/animal, egg deposition after 7 days
[17] = 20 μg/animal, egg deposition after 7 days

| SMILES | mortality at 100 g/ha [1] [%] | pest or weed control at 5 µg/cm2 [2, 12] [%] | mortality at 20 ppm [3] [%] | pest or weed control at 32 µg/disc, 100 g/ha [4, 13] [%] | pest or weed control at 1 µg/cm2, 100 g/ha [5] [%] | pest or weed control at 5 µg/cm2, 500 g/ha [5] [%] | mortality at 500 g/ha [6] [%] | mortality at 500 g/ha [1] [%] | mortality at 100 ppm [8, 15] [%] | mortality at 4 ppm [9] [%] | pest or weed control at 0.004 mg [10, 16] [%] | pest or weed control at 0.02 mg [10, 17] [%] | pest or weed control at 5 µg/cm2 [11] [%] | also measured |
| --- | --- | --- | --- | --- | --- | --- | --- | --- | --- | --- | --- | --- | --- | --- |
| CNc1nc([C@H](C)NC(=O)c2cc(Br)cc(C(F)(F)F)c2)n(-c2ncccn2)n1 [I-136] | 100 | 100 | 100 | 100 | 100 | 100 | 90 |  |  |  |  |  |  | mortality at 500 g/ha [7]: 100% |
| CC(=O)Nc1nc(C(C)NC(=O)c2cc(Cl)cc(C(F)(F)F)c2)n(-c2ccc(Cl)cn2)n1 (racemic) [I-011, N-[1-[5-acetamido-2-(5-chloro-2-pyridyl)-1,2,4-triazol-3-yl]ethyl]-3-chloro-5-(trifluoromethyl)benzamide] | 100 | 100 | 100 | 100 |  | 80 | 90 | 100 | 100 | 100 | 100 | 100 |  | pest or weed control at 160 µg/disc, 500 g/ha [4, 14]: 100% |
| CC(NC(=O)c1cc(Cl)cc(C(F)(F)F)c1)c1nc(S(C)(=O)=O)nn1-c1ccc(Cl)cn1 (stereo not drawn) [I-063] | 100 |  | 100 | 100 |  |  | 100 | 100 |  | 100 | 100 | 100 |  | pest or weed control at 160 µg/disc, 500 g/ha [4, 14]: 100% |
| CC(NC(=O)c1cc(Br)cc(C(F)(F)F)c1)c1nc(N)nn1-c1ccc(C#N)cn1 (stereo not drawn) [I-117] | 100 | 100 | 100 | 100 |  |  | 100 |  | 100 | 100 | 100 |  |  |  |
| C[C@H](NC(=O)c1cc(Br)cc(OC(F)(F)F)c1)c1nc(N(C)C)nn1-c1ncccn1 [I-139] | 100 | 100 | 100 | 100 | 80 | 100 | 100 |  |  |  |  |  | 100 | mortality at 500 g/ha [7]: 100% |
| C[C@H](NC(=O)c1cc(OC(F)(F)F)cc(C2CC2)c1)c1nc(N)nn1-c1ccc(C#N)cn1 [I-154] | 100 | 100 | 100 | 100 | 80 | 80 | 100 |  |  |  |  |  | 100 |  |
| CC(NC(=O)c1cc(C(F)(F)F)cc(C(F)(F)F)c1)c1nc(N)nn1-c1ccc(C#N)cn1 (stereo not drawn) [I-104] | 100 | 100 | 100 | 100 | 100 | 100 |  |  | 100 | 100 | 100 |  | 100 |  |
| CC(NC(=O)c1cc(F)cc(C#N)c1)c1nc(N)nn1-c1ncccn1 (stereo not drawn) [I-105] | 100 | 100 | 100 | 100 |  |  |  |  | 100 | 100 | 100 |  | 100 |  |
| CC(NC(=O)c1cc(Br)cc(Br)c1)c1nc(N)nn1-c1ccc(C#N)cn1 (stereo not drawn) [I-114] | 100 | 100 | 100 | 100 |  |  |  |  |  | 90 |  |  |  |  |
| CC(NC(=O)c1cc(Cl)cc(OC(F)(F)F)c1)c1nc(N)nn1-c1ccc(C#N)cn1 (stereo not drawn) [I-118] | 100 | 100 | 100 | 100 |  |  | 100 |  | 100 | 100 | 100 |  | 90 |  |
| CSc1nc(C(C)NC(=O)c2cc(Cl)cc(C(F)(F)F)c2)n(-c2ccc(Cl)cn2)n1 (stereo not drawn) [I-062] |  | 100 | 100 | 100 |  | 100 | 100 | 100 |  |  | 100 | 100 | 100 | pest or weed control at 160 µg/disc, 500 g/ha [4, 14]: 100%; mortality at 100 g/ha [6]: 100% |
| CNc1nc(C(C)NC(=O)c2cc(Cl)cc(OC(F)(F)F)c2)n(-c2ncccn2)n1 (stereo not drawn) [I-099] | 100 | 90 | 100 | 100 |  | 80 |  |  | 100 | 100 | 100 |  | 100 |  |
| CC(NC(=O)c1cc(Cl)cc(C(F)(F)F)c1)c1nc(NC(=O)C2CC2)nn1-c1ccc(Cl)cn1 (stereo not drawn) [I-015] | 100 |  | 100 |  |  |  |  | 100 | 100 |  | 100 | 100 |  |  |
| COC(=O)Nc1nc(C(C)NC(=O)c2cc(Cl)cc(C(F)(F)F)c2)n(-c2ccc(Cl)cn2)n1 (racemic) [I-010, methyl N-[1-(5-chloro-2-pyridyl)-5-[1-[[3-chloro-5-(trifluoromethyl)benzoyl]amino]ethyl]-1,2,4-triazol-3-yl]carbamate] | 100 |  | 80 |  | 100 | 100 |  | 100 |  | 90 |  |  |  | pest or weed control at 5 µg/cm2 ([2]; 48 h): 100%; pest or weed control at 32 µg/disc, 100 g/ha [4]: 100%; pest or weed control at 160 µg/disc, 500 g/ha [4]: 100%; mortality at 100 ppm [8]: 100%; pest or weed control at 0.004 mg [10]: 100%; pest or weed control at 0.02 mg [10]: 100% |
| CC(NC(=O)c1cc(Cl)cc(C(F)(F)F)c1)c1nc(NC(=O)C2CC2(F)F)nn1-c1ccc(Cl)cn1 (stereo not drawn) [I-018] |  | 100 | 100 | 100 |  |  |  |  | 100 |  | 100 | 100 | 100 | pest or weed control at 160 µg/disc, 500 g/ha [4, 14]: 100% |
